From ChEMBL document CHEMBL5653615 (J Biol Chem, 2013)

Legend:
[1] = molecular target: Fibroblast growth factor receptor 2 (Homo sapiens) (UniProt P21802); assay: Inhibition of human FGFR2 at 500 nM by HotSpot assay relative to control
[2] = molecular target: Myosin light chain kinase, smooth muscle (Homo sapiens) (UniProt Q15746); assay: Inhibition of human MYLK at 500 nM by HotSpot assay relative to control
[3] = molecular target: T1, cGMP-dependent protein kinase 1 (Homo sapiens) (UniProt Q13976); assay: Inhibition of human PKG1b at 500 nM by HotSpot assay relative to control
T1 sequence (whole entry): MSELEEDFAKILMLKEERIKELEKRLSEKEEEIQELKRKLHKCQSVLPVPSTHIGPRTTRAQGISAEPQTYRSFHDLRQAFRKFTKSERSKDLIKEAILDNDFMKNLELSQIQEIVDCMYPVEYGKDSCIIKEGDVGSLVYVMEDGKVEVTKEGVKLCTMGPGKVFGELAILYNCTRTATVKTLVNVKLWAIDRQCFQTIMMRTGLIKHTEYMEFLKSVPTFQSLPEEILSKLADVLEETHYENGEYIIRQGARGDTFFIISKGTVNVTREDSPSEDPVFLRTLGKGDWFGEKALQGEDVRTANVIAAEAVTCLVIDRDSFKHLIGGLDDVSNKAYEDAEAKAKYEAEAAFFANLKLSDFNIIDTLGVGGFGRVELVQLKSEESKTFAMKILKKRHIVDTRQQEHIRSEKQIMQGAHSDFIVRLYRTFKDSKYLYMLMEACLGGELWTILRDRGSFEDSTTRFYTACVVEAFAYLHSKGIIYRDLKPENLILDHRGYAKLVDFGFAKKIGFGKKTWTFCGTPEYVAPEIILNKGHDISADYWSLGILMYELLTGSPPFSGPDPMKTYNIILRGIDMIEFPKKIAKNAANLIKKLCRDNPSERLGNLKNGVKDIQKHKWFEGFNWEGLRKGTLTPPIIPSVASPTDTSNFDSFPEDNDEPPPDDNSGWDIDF

[4] = molecular target: Calcium/calmodulin-dependent protein kinase type 1D (Homo sapiens) (UniProt Q8IU85); assay: Inhibition of human CAMK1d at 500 nM by HotSpot assay relative to control
[5] = molecular target: Homeodomain-interacting protein kinase 2 (Homo sapiens) (UniProt Q9H2X6); assay: Inhibition of human HIPK2 at 500 nM by HotSpot assay relative to control
[6] = molecular target: T2, Mitogen-activated protein kinase kinase kinase 2 (Homo sapiens) (UniProt Q9Y2U5); assay: Inhibition of human MEKK2 at 500 nM by HotSpot assay relative to control
T2 sequence (whole entry): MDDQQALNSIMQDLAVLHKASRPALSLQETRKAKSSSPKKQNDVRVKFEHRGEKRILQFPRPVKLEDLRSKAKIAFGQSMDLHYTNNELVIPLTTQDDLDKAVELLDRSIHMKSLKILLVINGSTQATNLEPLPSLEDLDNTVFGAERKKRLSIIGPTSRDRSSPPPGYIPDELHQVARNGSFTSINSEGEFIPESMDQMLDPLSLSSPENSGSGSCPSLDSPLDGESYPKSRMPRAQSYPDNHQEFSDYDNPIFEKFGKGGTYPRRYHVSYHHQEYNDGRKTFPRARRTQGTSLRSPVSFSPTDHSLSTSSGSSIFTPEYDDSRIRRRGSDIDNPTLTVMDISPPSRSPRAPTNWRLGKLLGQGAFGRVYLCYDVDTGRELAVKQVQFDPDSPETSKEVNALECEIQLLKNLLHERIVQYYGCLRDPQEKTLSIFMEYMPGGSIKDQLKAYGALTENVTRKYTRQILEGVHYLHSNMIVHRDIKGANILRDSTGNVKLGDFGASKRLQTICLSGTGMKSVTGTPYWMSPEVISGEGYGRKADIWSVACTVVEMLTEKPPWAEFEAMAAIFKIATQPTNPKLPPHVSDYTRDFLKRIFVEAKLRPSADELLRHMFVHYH

[7] = molecular target: Insulin receptor (Homo sapiens) (UniProt P06213); assay: Inhibition of human IR at 500 nM by HotSpot assay relative to control
[8] = molecular target: Hepatocyte growth factor receptor (Homo sapiens) (UniProt P08581); assay: Inhibition of human c-MET at 500 nM by HotSpot assay relative to control
[9] = molecular target: T3, Protein kinase C iota type (Homo sapiens) (UniProt P41743); assay: Inhibition of human PKCiota at 500 nM by HotSpot assay relative to control
T3 sequence (whole entry): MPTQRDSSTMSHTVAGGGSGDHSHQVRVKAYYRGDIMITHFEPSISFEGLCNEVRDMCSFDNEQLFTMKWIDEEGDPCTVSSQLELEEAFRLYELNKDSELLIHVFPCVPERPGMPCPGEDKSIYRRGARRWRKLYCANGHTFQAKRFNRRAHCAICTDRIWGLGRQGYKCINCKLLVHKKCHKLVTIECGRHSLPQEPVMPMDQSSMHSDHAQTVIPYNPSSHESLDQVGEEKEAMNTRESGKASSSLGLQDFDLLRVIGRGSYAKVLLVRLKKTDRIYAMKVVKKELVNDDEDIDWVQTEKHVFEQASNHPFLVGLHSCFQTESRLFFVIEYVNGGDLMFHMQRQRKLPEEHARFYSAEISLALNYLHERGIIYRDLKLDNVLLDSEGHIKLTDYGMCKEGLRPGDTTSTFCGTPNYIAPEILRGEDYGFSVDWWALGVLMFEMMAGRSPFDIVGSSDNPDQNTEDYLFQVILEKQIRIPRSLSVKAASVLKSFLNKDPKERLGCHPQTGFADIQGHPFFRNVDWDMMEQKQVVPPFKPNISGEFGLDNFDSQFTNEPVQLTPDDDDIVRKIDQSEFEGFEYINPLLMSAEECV

[10] = molecular target: T4, Dual specificity tyrosine-phosphorylation-regulated kinase 4 (Homo sapiens) (UniProt Q9NR20); assay: Inhibition of human DYRK4 at 500 nM by HotSpot assay relative to control
T4 sequence (whole entry): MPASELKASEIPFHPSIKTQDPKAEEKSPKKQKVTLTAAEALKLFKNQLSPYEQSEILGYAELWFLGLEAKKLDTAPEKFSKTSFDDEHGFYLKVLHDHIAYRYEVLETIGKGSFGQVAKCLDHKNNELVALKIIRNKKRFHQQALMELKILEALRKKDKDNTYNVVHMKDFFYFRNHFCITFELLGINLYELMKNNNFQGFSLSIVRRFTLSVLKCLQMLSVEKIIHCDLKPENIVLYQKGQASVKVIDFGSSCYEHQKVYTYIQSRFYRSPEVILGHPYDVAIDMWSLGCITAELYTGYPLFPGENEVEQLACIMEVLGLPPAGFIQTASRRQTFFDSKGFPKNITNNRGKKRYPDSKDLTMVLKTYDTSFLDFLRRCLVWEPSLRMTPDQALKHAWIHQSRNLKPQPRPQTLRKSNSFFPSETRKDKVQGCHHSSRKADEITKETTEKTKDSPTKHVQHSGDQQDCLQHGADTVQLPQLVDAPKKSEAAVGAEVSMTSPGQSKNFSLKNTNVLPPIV

Sequence of Hepatocyte growth factor receptor (Homo sapiens) (P08581 whole entry): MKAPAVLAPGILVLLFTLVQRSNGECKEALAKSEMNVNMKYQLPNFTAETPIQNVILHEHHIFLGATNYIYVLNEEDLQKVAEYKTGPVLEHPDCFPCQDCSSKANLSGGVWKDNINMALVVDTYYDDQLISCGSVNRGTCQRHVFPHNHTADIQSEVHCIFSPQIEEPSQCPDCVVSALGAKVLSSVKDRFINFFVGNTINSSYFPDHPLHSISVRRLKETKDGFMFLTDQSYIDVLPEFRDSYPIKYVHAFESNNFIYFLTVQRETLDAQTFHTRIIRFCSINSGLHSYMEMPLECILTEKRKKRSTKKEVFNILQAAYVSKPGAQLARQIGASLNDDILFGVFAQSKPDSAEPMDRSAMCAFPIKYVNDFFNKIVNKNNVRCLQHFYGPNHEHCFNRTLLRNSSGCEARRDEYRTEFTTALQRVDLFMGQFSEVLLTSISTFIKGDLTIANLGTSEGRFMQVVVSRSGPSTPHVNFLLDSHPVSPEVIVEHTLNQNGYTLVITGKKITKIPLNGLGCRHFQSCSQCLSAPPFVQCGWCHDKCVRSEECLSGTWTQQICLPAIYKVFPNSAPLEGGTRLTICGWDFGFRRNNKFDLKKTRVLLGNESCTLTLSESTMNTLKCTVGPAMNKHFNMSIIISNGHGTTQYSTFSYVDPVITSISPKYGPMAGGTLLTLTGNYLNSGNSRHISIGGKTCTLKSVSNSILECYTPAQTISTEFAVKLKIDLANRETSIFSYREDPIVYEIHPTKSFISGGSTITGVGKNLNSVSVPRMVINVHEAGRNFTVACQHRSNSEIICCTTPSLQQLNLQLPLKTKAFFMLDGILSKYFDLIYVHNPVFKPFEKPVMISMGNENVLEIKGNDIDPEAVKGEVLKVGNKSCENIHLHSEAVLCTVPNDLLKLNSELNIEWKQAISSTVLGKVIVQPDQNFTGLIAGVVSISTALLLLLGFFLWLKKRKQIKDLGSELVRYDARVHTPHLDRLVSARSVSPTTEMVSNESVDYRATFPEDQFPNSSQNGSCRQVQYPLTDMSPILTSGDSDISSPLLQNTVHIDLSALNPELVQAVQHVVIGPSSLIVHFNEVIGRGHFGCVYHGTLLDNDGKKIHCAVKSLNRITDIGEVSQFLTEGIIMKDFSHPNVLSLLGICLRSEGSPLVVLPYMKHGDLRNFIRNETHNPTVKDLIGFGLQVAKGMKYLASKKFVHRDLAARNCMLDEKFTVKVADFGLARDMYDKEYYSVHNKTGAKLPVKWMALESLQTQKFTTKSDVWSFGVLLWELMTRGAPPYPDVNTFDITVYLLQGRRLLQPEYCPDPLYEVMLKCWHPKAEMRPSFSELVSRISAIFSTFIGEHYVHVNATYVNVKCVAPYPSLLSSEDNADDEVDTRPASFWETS
Sequence of Insulin receptor (Homo sapiens) (P06213 28-758 limits assumed): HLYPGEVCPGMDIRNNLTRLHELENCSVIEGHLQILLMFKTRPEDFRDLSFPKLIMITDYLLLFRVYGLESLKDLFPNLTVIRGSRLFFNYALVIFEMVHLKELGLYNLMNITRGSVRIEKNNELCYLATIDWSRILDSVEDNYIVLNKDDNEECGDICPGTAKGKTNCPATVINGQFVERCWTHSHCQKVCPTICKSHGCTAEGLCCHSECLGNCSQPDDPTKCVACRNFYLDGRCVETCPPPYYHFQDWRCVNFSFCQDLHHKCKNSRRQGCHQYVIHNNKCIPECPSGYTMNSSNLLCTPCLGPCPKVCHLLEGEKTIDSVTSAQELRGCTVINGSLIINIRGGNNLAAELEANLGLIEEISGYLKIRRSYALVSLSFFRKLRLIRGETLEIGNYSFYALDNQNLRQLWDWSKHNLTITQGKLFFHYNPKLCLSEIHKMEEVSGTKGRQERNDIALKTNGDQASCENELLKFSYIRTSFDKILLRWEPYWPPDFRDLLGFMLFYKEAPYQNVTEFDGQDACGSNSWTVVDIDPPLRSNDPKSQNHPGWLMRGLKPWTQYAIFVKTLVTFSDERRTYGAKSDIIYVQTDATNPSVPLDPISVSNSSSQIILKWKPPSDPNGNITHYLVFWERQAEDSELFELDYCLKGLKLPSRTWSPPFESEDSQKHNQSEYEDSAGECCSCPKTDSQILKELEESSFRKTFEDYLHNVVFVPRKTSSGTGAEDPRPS
Sequence of Insulin receptor (Homo sapiens) (P06213 763-1382 limits assumed): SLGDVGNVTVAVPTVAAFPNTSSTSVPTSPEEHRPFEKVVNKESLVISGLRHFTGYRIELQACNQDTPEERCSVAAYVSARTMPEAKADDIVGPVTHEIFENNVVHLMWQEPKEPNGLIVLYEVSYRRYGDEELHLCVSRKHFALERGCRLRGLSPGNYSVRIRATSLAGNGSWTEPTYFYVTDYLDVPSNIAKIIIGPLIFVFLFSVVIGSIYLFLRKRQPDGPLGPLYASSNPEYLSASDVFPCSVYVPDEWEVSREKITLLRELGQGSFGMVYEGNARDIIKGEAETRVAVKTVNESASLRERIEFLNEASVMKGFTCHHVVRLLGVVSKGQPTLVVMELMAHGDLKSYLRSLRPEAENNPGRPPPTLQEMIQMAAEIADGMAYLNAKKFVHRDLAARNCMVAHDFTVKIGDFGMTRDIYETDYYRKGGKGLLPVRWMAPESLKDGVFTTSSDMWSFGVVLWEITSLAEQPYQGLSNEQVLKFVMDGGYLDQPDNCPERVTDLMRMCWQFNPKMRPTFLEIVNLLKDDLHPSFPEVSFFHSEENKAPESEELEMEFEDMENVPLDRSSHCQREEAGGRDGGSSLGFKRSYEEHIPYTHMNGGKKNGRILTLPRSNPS
Sequence of Fibroblast growth factor receptor 2 (Homo sapiens) (P21802 22-821 limits assumed): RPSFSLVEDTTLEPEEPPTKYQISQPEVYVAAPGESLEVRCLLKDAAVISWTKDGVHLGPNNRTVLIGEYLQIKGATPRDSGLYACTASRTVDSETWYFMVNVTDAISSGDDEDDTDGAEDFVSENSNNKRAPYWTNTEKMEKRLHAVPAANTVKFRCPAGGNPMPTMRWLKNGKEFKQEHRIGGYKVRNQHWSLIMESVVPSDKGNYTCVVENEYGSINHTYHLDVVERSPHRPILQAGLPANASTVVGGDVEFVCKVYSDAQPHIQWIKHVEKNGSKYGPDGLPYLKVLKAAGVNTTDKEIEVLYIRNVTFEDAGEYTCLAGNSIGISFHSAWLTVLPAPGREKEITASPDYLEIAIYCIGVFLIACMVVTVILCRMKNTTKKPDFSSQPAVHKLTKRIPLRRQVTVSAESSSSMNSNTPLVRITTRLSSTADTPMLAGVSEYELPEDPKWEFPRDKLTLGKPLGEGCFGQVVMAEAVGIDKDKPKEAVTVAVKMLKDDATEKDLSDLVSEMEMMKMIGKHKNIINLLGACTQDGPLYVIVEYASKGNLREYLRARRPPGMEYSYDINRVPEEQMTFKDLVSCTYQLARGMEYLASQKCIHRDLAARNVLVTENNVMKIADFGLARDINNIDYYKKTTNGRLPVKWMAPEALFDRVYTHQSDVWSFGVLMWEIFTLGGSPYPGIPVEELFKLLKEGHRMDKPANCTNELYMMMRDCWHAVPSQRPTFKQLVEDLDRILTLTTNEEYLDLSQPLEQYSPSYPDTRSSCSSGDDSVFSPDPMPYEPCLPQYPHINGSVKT
Sequence of Homeodomain-interacting protein kinase 2 (Homo sapiens) (Q9H2X6 whole entry, looked up): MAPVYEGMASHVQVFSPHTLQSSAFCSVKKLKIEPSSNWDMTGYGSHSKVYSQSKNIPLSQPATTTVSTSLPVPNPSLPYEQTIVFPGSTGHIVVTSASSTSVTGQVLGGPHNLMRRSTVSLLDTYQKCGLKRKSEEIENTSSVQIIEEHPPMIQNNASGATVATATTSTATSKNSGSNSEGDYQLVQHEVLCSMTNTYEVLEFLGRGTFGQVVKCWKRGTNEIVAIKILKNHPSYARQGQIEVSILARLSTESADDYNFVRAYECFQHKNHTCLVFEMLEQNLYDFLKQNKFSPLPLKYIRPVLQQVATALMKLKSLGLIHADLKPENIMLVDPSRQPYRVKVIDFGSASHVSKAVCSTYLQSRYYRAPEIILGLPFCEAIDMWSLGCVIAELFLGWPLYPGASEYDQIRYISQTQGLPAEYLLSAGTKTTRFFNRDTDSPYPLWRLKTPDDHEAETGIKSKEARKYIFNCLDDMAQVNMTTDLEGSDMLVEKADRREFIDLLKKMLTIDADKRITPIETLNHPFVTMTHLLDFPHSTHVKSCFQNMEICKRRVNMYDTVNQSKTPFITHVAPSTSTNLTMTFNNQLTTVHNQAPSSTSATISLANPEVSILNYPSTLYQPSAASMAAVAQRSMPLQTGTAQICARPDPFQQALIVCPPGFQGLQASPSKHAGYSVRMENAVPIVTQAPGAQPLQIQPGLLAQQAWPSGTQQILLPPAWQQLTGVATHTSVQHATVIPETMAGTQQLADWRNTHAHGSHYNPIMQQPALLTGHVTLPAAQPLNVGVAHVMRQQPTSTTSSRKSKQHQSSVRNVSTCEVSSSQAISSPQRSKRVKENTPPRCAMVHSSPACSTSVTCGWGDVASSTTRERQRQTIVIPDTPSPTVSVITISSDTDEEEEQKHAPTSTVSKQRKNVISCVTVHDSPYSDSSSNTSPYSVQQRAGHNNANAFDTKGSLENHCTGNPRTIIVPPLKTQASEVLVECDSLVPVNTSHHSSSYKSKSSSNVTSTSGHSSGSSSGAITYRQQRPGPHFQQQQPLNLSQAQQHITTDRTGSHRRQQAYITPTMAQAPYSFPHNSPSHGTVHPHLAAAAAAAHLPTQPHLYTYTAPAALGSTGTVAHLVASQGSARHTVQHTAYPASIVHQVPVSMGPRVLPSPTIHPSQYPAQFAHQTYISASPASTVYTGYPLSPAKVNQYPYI

`Nc1n[nH]c2nnc(-c3c(-c4ccccc4)nn4ccccc34)cc12` showed an inhibition [1] of -1.79%, an inhibition [2] of 1.66% and an inhibition [3] of 10.5%. The inhibition [4] was 4.06%, the inhibition [5] was 0.35% and the inhibition [6] was 2.22%. For the same compound, the inhibition [7] was 21.7%, the inhibition [8] was 5.04% and the inhibition [9] was 1.7%. It also gave an inhibition [10] of 4.67%.
In the case of `Oc1n[nH]c2nnc(-c3c(-c4ccccc4)nn4ccccc34)cc12`, the inhibition [1] is reported as -0.03%, the inhibition [2] is reported as 1.22% and the inhibition [3] is reported as 10.6%. For the same compound, the inhibition [4] was -3.04%, the inhibition [5] was -0.79% and the inhibition [6] was -0.17%. It also gave an inhibition [7] of 72.6%, an inhibition [8] of 4.83% and an inhibition [9] of 1.33%. The inhibition [10] was 4.52%.
